Article PMC9704608, “Anti-leishmanial physalins—Phytochemical investigation, in vitro evaluation against clinical and MIL-resistant L. tropica strains and in silico studies” (PLOS ONE, 2022)
Converted amounts (≈) assume the structure as drawn. Like-named read-outs stand apart in the source and are kept apart here.

Columns and labels:
L. major promastigotes = assay: Promastigote growth inhibition assay (MTT), L. major; type: cell-based, Leishmania major; conditions: for IC50: Leishmania major, read-out: L. major IC50 (μM± SD); for anti-leishmanial activity against promastigotes of L. major (in words): in vitro
Protocol: (§1) L. major and L. tropica (Clinical isolates) promastigotes were grown at […] in RPMI-1640 (Sigma) medium containing 10% of heat-inactivated (56°C for 30 min) fetal bovine serum. Cell viability was initially evaluated by wet mount method by observing the live cells under compound microscope. Parasite growth was assessed by counting live / motile promastigotes in a Neubauer chamber. Viable cell count was used for the further experimentations (treatments).
(§2) The promastigotes in their log phase were used in 96-well plates. 1 × 10^6 wild-type and resistant promastigotes were dispensed in 96 96-well plates, and incubated with tested compounds at a range concentration of 200–10 μM at 27°C for 72 h. After incubation of 72 h, MTT dye (3-(4,5-dimethylthiazol-2-yl)-2,5-diphenyl-2H-tetrazolium bromide) was added and further incubate it for 3–4 h. Amphotericin B, pantamidine and miltefosine were used as the positive control, untreated promastigotes were used as negative control moreover DMSO control was also added in the study as a stock solution of the compounds that were prepared in DMSO. All the experiments were performed in triplicates. After completion of the experiment the absorbance by Multiskan ascent plate reader at 452 nm and percent inhibition was calculated by the following formula.
(§3) Cytotoxic concentration (%) = [100- (Absorbance of test)/ (Absorbance of solvent control) ×100] %.

L. tropica promastigotes = assay: Promastigote growth inhibition assay (MTT), L. tropica clinical isolates; type: cell-based, Leishmania tropica; conditions: for IC50: Leishmania tropica, read-out: L. tropica IC50 (μM± SD)
Protocol: as §1, §2, §3

[1] = system: MIL-resistant L. tropica promastigotes; assay: Growth inhibition assay (MTT) against MIL-resistant line; type: cell-based, Leishmania tropica; conditions: 72 h; for MIL Resistant L. tropica IC50 (μM± SD): miltefosine-unresponsive strain, promastigotes
Protocol: as §2, §3
Promastigote cultures tL. tropica (Clinical isolates) were maintained at 26°C in RPMI-1640 medium containing 15% FBS and 1% penicillin–streptomycin mixture.
Generation of miltefosine-unresponsive strain was carried under high MIL pressure by in vitro passage with a stepwise increase in the MIL concentration. At each step, parasites were cultured and passaged every 3–4 days at an initial concentration of 5x10^5 promastigotes/mL in order to achieve -stable growth as compared to the wildtype isolate. Growth rates were measured for resistant populations and compared with the WT strain. Parasites were counted at an initial concentration of 5x10^5 parasites/mL and growth was measured daily using a Neubauer chamber until the population reached the stationary phase. Furthermore, the fluorescence microscopic investigations via DAPI stain were also carried out to supplement the study.

[2] = Cytotoxicity (MTT) against BJ cell line; type: cell-based, human; conditions: pure compounds; human fibroblast, 48 h; read-out: BJ cell line CC50 (μM± SD)
Protocol: (§4) The cytotoxicity of the test compounds against normal cell lines was evaluated through MTT (3-[4, 5-dimethylthiazole-2-yl]-2, 5-diphenyl-tetrazolium bromide] colorimetric assay in 96-well flat-bottomed microplates. The 3T3 (mouse fibroblast) and BJ (human fibroblast) were cultured Dulbecco’s Modified Eagle Medium, supplemented with 5% of fetal bovine serum (FBS), 100 IU/mL of penicillin and 100 μg/mL of streptomycin in 75 cm2 flasks, and then incubated in 5% CO2 incubator at 37°C. The growing cells were counted by using a haemocytometer, and diluted with the particular medium. The 5x10^4 cells/mL of the cell culture was prepared, and a sample […] was introduced into each well. […] After 48 hours, 200 μL MTT (0.5 mg/mL) was added, and the incubation was further continued for 4 hrs. After that time, 100 μL of DMSO was added to each well. The absorbance was measured using a micro plate reader (Spectra Max Plus, Molecular Devices, CA, USA) at 570 nm for the extent of MTT reduction to formazan within the cells. The cytotoxicity was recorded as CC50 against cells by using Soft- Max Pro software. Doxorubicin and cycloheximide were used as positive control. The experiments were run in triplicate.

[3] = system: BJ (human fibroblast) cells; assay: Cytotoxicity (MTT) against BJ cell line; type: cell-based; conditions: for L. major SI (CC50/ IC50): CC50 BJ cell line / IC50 L. major; for L. tropica SI (CC50/ IC50): CC50 BJ cell line / IC50 L. tropica; for IC50: Homo sapiens, Fibroblast, read-out: BJ (human fibroblast) IC50 (μM± SD)
Protocol: as §4

[4] = Cytotoxicity (MTT) against 3T3 cell line; type: cell-based, mouse; conditions: pure compounds; mouse fibroblast, 48 h; read-out: 3T3 Cell line CC50 (μM± SD)
Protocol: (§5) The cytotoxicity of the test compounds against normal cell lines was evaluated through MTT (3-[4, 5-dimethylthiazole-2-yl]-2, 5-diphenyl-tetrazolium bromide] colorimetric assay in 96-well flat-bottomed microplates. The 3T3 (mouse fibroblast) and BJ (human fibroblast) were cultured Dulbecco’s Modified Eagle Medium, supplemented with 5% of fetal bovine serum (FBS), 100 IU/mL of penicillin and 100 μg/mL of streptomycin in 75 cm2 flasks, and then incubated in 5% CO2 incubator at 37°C. The growing cells were counted by using a haemocytometer, and diluted with the particular medium. The 5x10^4 cells/mL of the cell culture was prepared, and a sample […] was introduced into each well. The medium was removed after overnight incubation, and 200 μL of fresh medium was added with different concentrations of compounds (1–30 μM). After 48 hours, 200 μL MTT (0.5 mg/mL) was added, and the incubation was further continued for 4 hrs. After that time, 100 μL of DMSO was added to each well. The absorbance was measured using a micro plate reader (Spectra Max Plus, Molecular Devices, CA, USA) at 570 nm for the extent of MTT reduction to formazan within the cells. The cytotoxicity was recorded as CC50 against cells by using Soft- Max Pro software. Doxorubicin and cycloheximide were used as positive control. The experiments were run in triplicate.

[5] = system: 3T3 (mouse fibroblast) cells; assay: Cytotoxicity (MTT) against 3T3 cell line; type: cell-based; conditions: for IC50: Mus musculus, Fibroblast, read-out: 3T3 (mouse fibroblast) IC50 (μM ± SD); for L. tropica SI (CC50/ IC50): CC50 3T3 cell line / IC50 L. tropica
Protocol: as §5

[6] = system: BJ (human fibroblast) cells; assay: Cytotoxicity (MTT) against BJ cell line; type: cell-based; conditions: cytotoxicity of extracts and fractions, read-out: BJ (human fibroblast) IC50 (μg/ml ± SD)
[7] = system: 3T3 (mouse fibroblast) cells; assay: Cytotoxicity (MTT) against 3T3 cell line; type: cell-based; conditions: cytotoxicity of extracts and fractions, read-out: 3T3 (mouse fibroblast) IC50 (μg/ml ± SD)
[8] = CC50 3T3 mouse fibroblast cell line / IC50 L. major
[9] = CC50 BJ fibroblast cell line / IC50 L. major
[10] = CC50 BJ fibroblast cell line / IC50 L. tropica
[11] = CC50 3T3 mouse fibroblast cell line / IC50 L. tropica
[12] = pure compounds, standard drugs, promastigotes, 72 h
[13] = pure compounds, standard drugs, promastigotes, clinical isolate, 72 h

Q: Which results are given for `C[C@]12C(=O)C=CCC1=CC[C@@H]1[C@@H]2CC[C@]2(O)C(=O)O[C@@]3(C)[C@H]4C[C@]5(C)[C@@H](CO[C@@]16O[C@@]32[C@H]5C6=O)C(=O)O4` [Compound 2, Physalin B]?
A: L. major SI (CC50/ IC50) (L. major promastigotes; [8]): 3.28; L. major SI (CC50/ IC50) (L. major promastigotes; [9]): 3.5; IC50 (L. major promastigotes; 72 h): 3.04 ± 1.12 µM; L. tropica SI (CC50/ IC50) (L. tropica promastigotes; [10]): 0.8; IC50 (L. tropica promastigotes; 72 h): 13.33 ± 0.098 µM; MIL Resistant L. tropica IC50 (μM± SD) [1]: inactive; CC50 at 48 h [2]: 10.8 ± 1.5 µM; L. major SI (CC50/ IC50) [3]: 3.5; L. tropica SI (CC50/ IC50) [3]: 0.8; IC50 [3]: 27.6 ± 0.9 µM; CC50 at 48 h [4]: 10 ± 0.4 µM; IC50 [5]: 10 ± 0.4 µM

Q: With `CC12CC3OC(=O)C1COC14OC5(C2C1=O)C(O)(CCC1C4CC2OC24CC=CC(=O)C14C)C(=O)OC35C` (stereo not drawn) [Compound 3, 5β, 6β-epoxyphysalin B] as the molecule, how does the “L. major SI (CC50/ IC50)” value (L. major promastigotes; [8]) read?
A: Its value is 0.19.

Q: What about the “L. major SI (CC50/ IC50)” value (L. major promastigotes; [9]) of the same molecule?
A: The value was 7.34.

Q: And the IC50 (L. major promastigotes; 72 h)?
A: The IC50 was 3.76 ± 0.85 µM.

Q: What about the “L. tropica SI (CC50/ IC50)” value (L. tropica promastigotes; [11]) of the same molecule?
A: Its value is 0.038.

Q: And the “L. tropica SI (CC50/ IC50)” value (L. tropica promastigotes; [10])?
A: Its value is 1.48.

Q: And the IC50 (L. tropica promastigotes; 72 h)?
A: The IC50 was 18.5 ± 0.28 µM.

Q: What about the “MIL Resistant L. tropica IC50 (μM± SD)” value [1] of the same molecule?
A: Its value is “inactive”.

Q: And the CC50 at 48 h [2]?
A: The CC50 at 48 h was 27.6 µM.

Q: What about the “L. tropica SI (CC50/ IC50)” value [3] of the same molecule?
A: The value was 1.48.

Q: And the IC50 [3]?
A: The IC50 was 10.8 ± 1.5 µM.

Q: What about the CC50 at 48 h [4] of the same molecule?
A: Its CC50 at 48 h is 0.72 ± 0.5 µM.

Q: And the “L. tropica SI (CC50/ IC50)” value [5]?
A: Its value is 0.038.

Q: And the IC50 [5]?
A: Its IC50 is 0.72 ± 0.5 µM.

Q: With `CCOC12CC=CC(=O)C1(C)C1CCC3(O)C(=O)OC4(C)C5CC6(C)C(COC7(OC34C6C7=O)C1CC2O)C(=O)O5` (stereo not drawn) [Compound 4, 5α-ethoxy-6ß-hydroxy-5,6-dihydrophysalin B] as the molecule, how does the “anti-leishmanial activity against promastigotes of L. major (in words)” value (L. major promastigotes) read?
A: Its value is “no significant activity”.

Q: What about the “L. major IC50 (μM± SD)” value (L. major promastigotes; [12]) of the same molecule?
A: The value was “Inactive”.

Q: What about the “L. tropica IC50 (μM± SD)” value (L. tropica promastigotes; [13]) of the same molecule?
A: The value was “Inactive”.

Q: And the IC50 ([1]; Leishmania tropica, read-out: MIL Resistant L. tropica IC50 (μM± SD))?
A: Its IC50 is 74.7 ± 0.81 µM.

Q: What about the CC50 [2] of the same molecule?
A: The CC50 was 14.2 ± 0.8 µM.

Q: And the IC50 ([3]; cytotoxicity of compounds 1-9)?
A: Its IC50 is under 50 µM.

Q: And the CC50 [4]?
A: Its CC50 is 19.6 ± 0.8 µM.

Q: And the IC50 ([5]; cytotoxicity of compounds 1-9)?
A: The IC50 was 19.6 ± 0.8 µM.

Q: For `CC12CC3OC(=O)C1COC14OC5(C2C1=O)C(O)(CCC1C4CC(O)C2(Cl)CC=CC(=O)C12C)C(=O)OC35C` (centres unmarked) [Compound 5, Physalin H], which “L. major SI (CC50/ IC50)” value (L. major promastigotes; [8]) is on record?
A: The value was 0.119.

Q: What about the “L. major SI (CC50/ IC50)” value (L. major promastigotes; [9]) of the same molecule?
A: Its value is 3.11.

Q: What about the IC50 (L. major promastigotes; [12]) of the same molecule?
A: The IC50 was 3.34 ± 0.64 µM.

Q: And the “L. tropica SI (CC50/ IC50)” value (L. tropica promastigotes; [11])?
A: The value was 0.041.

Q: What about the “L. tropica SI (CC50/ IC50)” value (L. tropica promastigotes; [10]) of the same molecule?
A: The value was 1.08.

Q: What about the IC50 (L. tropica promastigotes; [13]) of the same molecule?
A: Its IC50 is 9.59 ± 0.27 µM.

Q: And the “MIL Resistant L. tropica IC50 (μM± SD)” value [1]?
A: Its value is “inactive”.

Q: And the CC50 [2]?
A: The CC50 was 10.4 ± 1 µM.

Q: What about the “L. tropica SI (CC50/ IC50)” value [3] of the same molecule?
A: The value was 1.08.

Q: And the IC50 ([3]; cytotoxicity of compounds 1-9)?
A: Its IC50 is 14.2 ± 0.8 µM.

Q: What about the CC50 [4] of the same molecule?
A: The CC50 was 0.4 ± 0.07 µM.

Q: What about the “L. tropica SI (CC50/ IC50)” value [5] of the same molecule?
A: Its value is 0.041.

Q: What about the IC50 ([5]; cytotoxicity of compounds 1-9) of the same molecule?
A: The IC50 was 0.4 ± 0.07 µM.

Q: Which results are given for `C=C1C(=O)OC2CC1(C)C1C(=O)C3(O)OC14C(O)(CCC1C3CC3OC35CC=CC(=O)C15C)C(=O)OC24C` (stereo not drawn) [Compound 6, 5β, 6β-epoxyphysalin C]?
A: L. major SI (CC50/ IC50) (L. major promastigotes; [8]): 0.007; L. major SI (CC50/ IC50) (L. major promastigotes; [9]): 1.19; IC50 (L. major promastigotes; [12]): 84.8 ± 1.56 µM; anti-leishmanial activity against promastigotes of L. major (in words) (L. major promastigotes): no significant activity; L. tropica SI (CC50/ IC50) (L. tropica promastigotes; [11]): 0.025; L. tropica SI (CC50/ IC50) (L. tropica promastigotes; [10]): 4.20; IC50 (L. tropica promastigotes; [13]): 23.8 ± 1.1 µM; MIL Resistant L. tropica IC50 (μM± SD) [1]: inactive; CC50 [2]: > 100 µM; L. major SI (CC50/ IC50) [3]: 1.19; IC50 ([3]; cytotoxicity of compounds 1-9): 10.4 ± 1 µM; CC50 [4]: 0.6 ± 0.04 µM; L. tropica SI (CC50/ IC50) [5]: 0.025; IC50 ([5]; cytotoxicity of compounds 1-9): 0.6 ± 0.04 µM

Q: For `COc1cccc2c1C(=O)c1c(O)c3c(c(O)c1C2=O)C[C@@](O)(C(=O)CO)C[C@@H]3O[C@H]1C[C@H](N)[C@H](O)[C@H](C)O1` [Doxorubicin], which IC50 [6] is on record?
A: Its IC50 is 0.1 ± 0.02 µg/mL (≈ 0.184 µM).

Q: And the IC50 [7]?
A: The IC50 was 0.1 ± 0.02 µg/mL (≈ 0.184 µM).
